The test deals with RPE cell. Kind of test: Proteolytic activity of cultured RPE cell extracts on AGE-BSA (electrophoresis, ImageQuant). The test is classed as cell-based, bovine. Particulars: 50 ng/ml HGF. On the procedure: 1×10^6 RPE cells are seeded into the 96-well microplate, containing 10% FCS in DMEM, at 37° C., supplied with 5% CO2. After incubation of 48 hrs, five sets of experiment are treated with the Dendrobii Caulis crude extract, in which each set of experiment includes two microplates for different treating time. After treating for 36 or 48 hrs, 0.01% EDTA is added into the microplate for harvesting the cells, and then the cells are suspended in the […]. Then, the cell solution is centrifuged for 5 min at 1200 rpm, and the cells are suspended back into 10 ml DEME twice. Then, the cell solution is centrifuged again, and is suspended back again with the 0.7 ml Homogenization buffer (50 mM sodium acetate buffer, pH4.5, 1 mM DTT, 0.15M NaCl, 3 mM NaN3) containing 0.1% TritonX-100. Then, the cell solution is vibrated by a sonicator for 15 sec, four cycles, for breaking the cell completely. […] The protein concentration is detected. […]
1×10^6 RPE cells are seeded into the 96-well microplate, containing 10% FCS in DMEM, at 37° C., supplied with 5% CO2. […] After treating for 36 or 48 hrs, 0.01% EDTA is added into the microplate for harvesting the cells, and then the cells are suspended in the DMEM and the cell number is counted. […]

From patent US8067039B2, “Extract of plant Dendrobii caulis and preparing process thereof” (National Yang-Ming University, priority 2003, dated 2011) come the findings set out here.

In the case of “HGF: hepatocyte growth factor, used at 50 ng/ml as comparison treatment”, where the note is “48 hours, FIG. 32”, the “proteolytic activity of cultured RPE cell vs control set” value is recorded as “a little bit greater”. Also, the “amount of AGE-BSA” value (FIG. 33) was “obviously decreased”.
